# Measured values: article PMC7801313, “Effect of lurbinectedin on the QTc interval in patients with advanced solid tumors: an exposure–response analysis” (Cancer Chemotherapy and Pharmacology, 2020)
# Legend:
# [1] = design: method as in data on file; details: ref data on file; cited from earlier work
# [2] = system: patients with advanced solid tumors; assay: concentration-ΔQTcF linear mixed-effects modelling; format: in vivo, human
# Experimental: C–ΔQTcF was assessed using a linear mixed-effects (LME) model, as proposed by Garnett et al.. As the data available came from a single arm study, the LME model was characterized by the intercept ( θ1 ) and the slope ( θ2 ), and their corresponding variabilities.1 ΔQTcFij=θ1·e^η1,i+θ2·e^η2,i·Cij+θ3·Cycle+ϵij, where Cij is the model-predicted lurbinectedin total plasma concentrations (or the lurbinectedin concentrations in the effect compartment if a hysteresis is present), and η1,i and η2,i are the random effects associated with the intercept term θ1 and the slope term θ2 , respectively, and are assumed to be exponential, independent, and normally distributed. Furthermore, ϵij is the random residual variability, assumed to be an additive, independent, and normally distributed random variable. In the absence of placebo data, the unstructured placebo model consisting on the fixed effect parameters accounting for treatment-specific intercept (TRT), mean ΔQTcF at each time point evaluated (TIME), and baseline QTc was not included in the model. Based on the fact that ECG and PK assessments in this study were performed on two occasions (cycle 1 and cycle 2), the effect of cycle θ3 was also assessed in the models. To select the model for the C-ΔQTcF analysis (i.e., direct or indirect), a potential delay of the ΔQTcF effect relative to plasma concentrations (hysteresis) was graphically and statistically assessed, as proposed by Darpo et al.. To enable an adequate comparison of the model fit between the direct effect model and the effect compartment model, the model-based predicted total plasma concentrations at central compartment (“direct” model) and at the effect compartment (“indirect” model) were used. These were based on the individual PK parameters, obtained through a maximum a posteriori estimation based on the individual total plasma concentration available for each subject and a population PK model previously developed.
# The assumption of linearity of the C–ΔQTcF relationship was assessed by goodness-of-fit plots. Besides, a model with an empirical quadratic term of total plasma concentration was fitted and the significance of the quadratic term was tested. In case of the absence of trends in the goodness-of-fit plots and a non-significant quadratic term, the C–∆QTcF relationship was considered linear; otherwise, the relationship was considered non-linear.
# The predicted effect of lurbinectedin on ΔQTcF was estimated at the Cmax geometric mean either at the central or at the effect compartment in the first two cycles following the administration of 3.2 mg/m^2 i.v. over 1-h q3wk and was calculated as the estimated intercept ( θ1,Est ) plus the product of the estimated slope ( θ2,Est ) and geometric mean Cmax ( C ):2 EstimatedMeanΔQTcFC=θ1,Est+C×θ2,Est.
# Two-sided 90% confidence intervals (CIs) of the estimated ΔQTcF were computed from Eqs. 3 and 4:3 EstimatedSE=varθ1,Est+C^2varθ2,Est+2Ccovθ1,Estθ2,Est 4 90%CI=EstimatedMeanΔQTcC±t0.95,DF×EstimatedSE, where varθ1,Est is the variance of the intercept, varθ2,Est is the variance of the slope, and covθ1,Estθ2,Est is the covariance of intercept and slope; t is the critical value determined from the t-distribution; DF is the degrees of freedom; SE is the standard error; and CI is the confidence interval.
# To exclude a prolongation of QT for lurbinectedin assuming that there is no placebo effect, the upper bound (UB) of the 2-sided 90% CI of the model-predicted mean ΔQTcF had to be lower than 10 ms (threshold set at the ICH E14 Q&A R3 [11]), at the Cmax geometric mean obtained after administration of the clinically relevant dose of 3.2 mg/m^2 i.v. over 1-h q3wk.
# The Cmax geometric mean either at the central or at the effect compartment, at which UB 90% CI of the model-predicted mean ΔQTcF would be above 10 ms and 20 ms thresholds, was also estimated according to the formulas provided above.
# hERG = system: hERG; design: method as in data on file; details: ref data on file; cited from earlier work
compound,measurement,setting,value
"COc1ccc2[nH]c3c(c2c1)CCN[C@]31CS[C@@H]2c3c(OC(C)=O)c(C)c4c(c3[C@H](COC1=O)N1[C@@H]2[C@H]2c3c(cc(C)c(OC)c3O)C[C@@H]([C@@H]1O)N2C)OCO4 [lurbinectedin, Lurbinectedin]",protein binding,[1],highly protein-bound
same,Cmax at the effect compartment associated with 10 ms UB 90% CI of ΔQTcF,[2]; delayed effect model,36.18 ng/mL
same,Cmax at the effect compartment associated with 20 ms UB 90% CI of ΔQTcF,[2]; delayed effect model,61.94 ng/mL
same,dose corresponding to 10 ms UB 90% CI of ΔQTcF,[2]; delayed effect model,3.8 mg/m^2
same,dose corresponding to 20 ms UB 90% CI of ΔQTcF,[2]; delayed effect model,6.5 mg/m^2
same,fold increase over recommended dose Cmax at 10 ms threshold,[2]; delayed effect model,1.21 fold
same,fold increase over recommended dose Cmax at 20 ms threshold,[2]; delayed effect model,2.03 fold
same,Cmax associated with 10 ms UB 90% CI of ΔQTcF,[2]; direct effect model,129.05 ng/mL
same,Cmax associated with 20 ms UB 90% CI of ΔQTcF,[2]; direct effect model,241.25 ng/mL
same,dose corresponding to 10 ms UB 90% CI of ΔQTcF,[2]; direct effect model,3.6 mg/m^2
same,dose corresponding to 20 ms UB 90% CI of ΔQTcF,[2]; direct effect model,6.6 mg/m^2
same,Cmax (central compartment),"[2]; direct effect model, recommended dose",116.62 ng/mL
same,Slope of C-ΔQTcF,[2]; final delayed effect (effect compartment) model,0.289 L·ms/µg
same,"Keo, equilibration rate constant",[2]; final delayed effect model,0.298 h⁻¹
same,Slope of C-ΔQTcF,[2]; final direct model,0.072 L·ms/µg
same,IC50,hERG,8.8 µM
same,IC50 hERG,hERG,6.9 µg/mL
